Test [1] addresses T1, phosphor-EGFR in H1975(L585R/T790M) mutant EGFR expressing cells (Homo sapiens, UniProt P00533, L858R/T790M).
T1 construct: host or cells: NCI-H1975
Description: H1975 pEGFR MSD cellular assay. In kind it is cell-based. The following applies: NCI-H1975 cells, serum starved, 1 hour compound incubation, pEGFR Tyr1068 MSD. The method, then: H1975 pEGFR MSD Cellular Assays Background:
These assays are intended for determining cellular. […] (Meso Scale Discovery Catalog# N31CB-1).
All cell culture reagents were purchased from Invitrogen/Gibco. Cells are cultured at 37° C. at 5% CO2 and split as recommended by ATCC.
Cell Plating and Serum Starvation:
After six hours, culture medium is aspirated and replaced with serum-free culture medium. Cells are then incubated with the serum-free medium overnight at 37° C. and 5% CO2.
The following day, test compounds are serially diluted in dimethyl sulfoxide (DMSO) and added to cells in serum free medium (final DMSO concentration 0.5%). Assay plates are then incubated for 1 hour at 37° C. and 5% CO2. Following 1 hour of compound incubation cells are then lysed and processed as per the MSD pEGFR assay kit protocol. Cell lysates are added to assay plates pre-coated with antibodies against phosphorylated EGFR. Phosphorylated EGFR in samples are allowed to bind to the capture antibodies overnight at 4° C. The detection antibody (anti-total EGFR, labeled with an electrochemiluminescent SULFO-TAG) is added to the bound lysate and incubated for 1 hour at room temperature. The MSD Read Buffer is added such that when a voltage is applied to the plate electrodes, the labels bound to the electrode surface emit light. The MSD Sector Instrument measures the intensity of the light, and quantitatively measures the amount of phosphorylated-EGFR in the sample. Percent inhibition of EGFR phosphorylation by varying concentrations of test compounds is calculated relative to untreated controls. EC50 values are calculated using the 4 parameter logistic nonlinear regression dose-response model.

Test [2] has as its target T2, EGFR del746-750 T790M (Homo sapiens, UniProt P00533, DEL746-750/T790M).
T2 construct: purchased Carna Biosciences 08-528
Description: EGFR del746-750 T790M biochemical assay (Caliper mobility shift). As to conditions: 5 μM ATP, 30 min, room temperature; apparent Ki (Morrison) converted by Cheng-Prusoff, Km of ATP 2.1 μM; read-out: EGFR(T790M/d746-750) Ki.

This note sets out measurements from patent publication US9890152B2 (Genentech, Inc., priority 2012, dated 2018).

The structures appear in SMILES notation.

T1 sequence (P00533 25-1210 T790M/L858R): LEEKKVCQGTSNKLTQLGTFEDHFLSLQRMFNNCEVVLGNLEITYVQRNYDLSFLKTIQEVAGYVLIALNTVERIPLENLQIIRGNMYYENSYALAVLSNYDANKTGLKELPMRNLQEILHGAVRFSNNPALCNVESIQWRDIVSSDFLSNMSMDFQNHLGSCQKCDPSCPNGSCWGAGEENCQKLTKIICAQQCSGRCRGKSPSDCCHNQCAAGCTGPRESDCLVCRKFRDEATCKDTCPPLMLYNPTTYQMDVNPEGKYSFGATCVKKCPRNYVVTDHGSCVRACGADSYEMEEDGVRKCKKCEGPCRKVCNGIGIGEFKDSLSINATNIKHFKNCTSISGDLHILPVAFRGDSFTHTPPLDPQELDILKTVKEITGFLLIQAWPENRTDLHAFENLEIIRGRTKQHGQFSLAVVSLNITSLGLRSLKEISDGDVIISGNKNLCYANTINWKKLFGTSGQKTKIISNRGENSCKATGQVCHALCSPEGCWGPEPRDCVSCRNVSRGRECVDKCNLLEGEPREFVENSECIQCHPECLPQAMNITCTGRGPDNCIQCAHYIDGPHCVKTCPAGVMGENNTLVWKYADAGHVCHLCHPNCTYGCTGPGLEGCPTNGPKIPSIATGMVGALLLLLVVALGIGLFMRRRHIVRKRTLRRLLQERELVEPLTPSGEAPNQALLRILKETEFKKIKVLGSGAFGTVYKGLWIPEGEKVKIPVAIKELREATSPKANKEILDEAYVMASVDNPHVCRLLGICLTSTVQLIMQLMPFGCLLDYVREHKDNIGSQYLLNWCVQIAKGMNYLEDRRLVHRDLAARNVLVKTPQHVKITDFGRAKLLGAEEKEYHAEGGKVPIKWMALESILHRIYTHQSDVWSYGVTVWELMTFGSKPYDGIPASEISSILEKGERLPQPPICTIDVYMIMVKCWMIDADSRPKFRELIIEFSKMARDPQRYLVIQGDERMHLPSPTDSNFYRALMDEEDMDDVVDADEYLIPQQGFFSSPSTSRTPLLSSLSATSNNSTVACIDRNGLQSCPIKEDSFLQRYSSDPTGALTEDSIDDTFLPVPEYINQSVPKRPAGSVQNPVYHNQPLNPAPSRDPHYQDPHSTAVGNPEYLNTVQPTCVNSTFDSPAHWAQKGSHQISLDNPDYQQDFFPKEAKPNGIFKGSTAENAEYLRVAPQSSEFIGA
T2 sequence (P00533 with tags, fused parts or gaps DEL746-750/T790M limits assumed): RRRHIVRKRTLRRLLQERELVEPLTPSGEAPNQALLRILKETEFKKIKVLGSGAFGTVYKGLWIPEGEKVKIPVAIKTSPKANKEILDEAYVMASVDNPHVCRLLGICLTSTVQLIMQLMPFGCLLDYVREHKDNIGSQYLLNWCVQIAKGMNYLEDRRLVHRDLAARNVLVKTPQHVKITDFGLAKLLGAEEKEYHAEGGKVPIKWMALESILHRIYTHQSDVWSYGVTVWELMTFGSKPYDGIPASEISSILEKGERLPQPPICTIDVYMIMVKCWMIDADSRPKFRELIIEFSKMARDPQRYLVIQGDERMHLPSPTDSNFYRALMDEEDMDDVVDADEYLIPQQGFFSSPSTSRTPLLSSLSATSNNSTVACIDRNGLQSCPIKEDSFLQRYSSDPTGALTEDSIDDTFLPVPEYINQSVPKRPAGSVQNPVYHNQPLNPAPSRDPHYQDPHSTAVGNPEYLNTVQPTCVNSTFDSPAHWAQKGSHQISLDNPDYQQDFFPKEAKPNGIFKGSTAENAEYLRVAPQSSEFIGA

For the molecule `CC1(C)COc2nc3cnc(Nc4ccnc(-c5cnn(S(=O)(=O)C6CC6)c5)n4)cc3n21` [Example 280, [2-(1-Cyclopropanesulfonyl-1H-pyrazol-4-yl)-pyrimidin-4-yl]-(3,3-dimethyl-2,3-dihydro-1-oxa-3a,6,8-triazacyclopenta[a]inden-5-yl)-amine], a half-maximal effect in test [1] (EC50) was put at 1740 nM. Besides, the Ki in test [2] came out at 8.86 nM.
For `CC(C)n1c(CO)nc2cnc(Nc3ccnc(N4C[C@H]5CC[C@@H](C4)[C@H]5O)n3)cc21` [Example 433, (1R,5S,8r)-3-(4-((2-(hydroxymethyl)-1-isopropyl-1H-imidazo[4,5-c]pyridin-6-yl)amino)pyrimidin-2-yl)-3-azabicyclo[3.2.1]octan-8-ol] the same measures were 2190 nM and 17.2 nM.
For `COC1CCN(c2nccc(Nc3cc4c(cn3)c(C(N)=O)cn4C(C)C)n2)CC1` [Example 115, 1-isopropyl-6-((2-(4-methoxypiperidin-1-yl)pyrimidin-4-yl)amino)-1H-pyrrolo[3,2-c]pyridine-3-carboxamide] the same measures were 710 nM and 28.5 nM.
For the molecule `CCC(C)n1cc(C(=O)NC2CCOCC2)c2cnc(Nc3ccnc(-c4cnn(S(=O)(=O)C5CC5)c4)n3)cc21` (single isomer, unassigned; (-)) [Example 322, (−)-1-(sec-butyl)-6-((2-(1-(cyclopropylsulfonyl)-1H-pyrazol-4-yl)pyrimidin-4-yl)amino)-N-(tetrahydro-2H-pyran-4-yl)-1H-pyrrolo[3,2-c]pyridine-3-carboxamide], the response in test [1] was half-maximal at 60.9 nM (EC50). Besides, the Ki in test [2] is 1.34 nM.
The corresponding values for `CC(C)n1cc(-c2cnn(CCO)c2)c2cnc(Nc3ccnc(-c4cnn(S(=O)(=O)C5CC5)c4)n3)cc21` [Example 393, 2-(4-(6-((2-(1-(cyclopropylsulfonyl)-1H-pyrazol-4-yl)pyrimidin-4-yl)amino)-1-isopropyl-1H-pyrrolo[3,2-c]pyridin-3-yl)-1H-pyrazol-1-yl)ethanol] are 10.9 nM and 1.12 nM.
Turning to `CCC(C)n1cc(C(=O)NC2CCOCC2)c2cnc(Nc3ccnc(N4CCC(O)C(C)(C)C4)n3)cc21` (mixture of isomers) [Example 383, 1-(sec-butyl)-6-((2-(4-hydroxy-3,3-dimethylpiperidin-1-yl)pyrimidin-4-yl)amino)-N-(tetrahydro-2H-pyran-4-yl)-1H-pyrrolo[3,2-c]pyridine-3-carboxamide], the midpoint of the response in test [1], the EC50, lay at 34.7 nM. In addition, in test [2], the Ki turned out to be 2.81 nM.
For `Cc1c(C(=O)NC2CCOCC2)c2cnc(Nc3ccnc(-c4cnn(S(=O)(=O)C5CC5)c4)n3)cc2n1C(C)C` [Example 335, 6-((2-(1-(Cyclopropylsulfonyl)-1H-pyrazol-4-yl)pyrimidin-4-yl)amino)-1-isopropyl-2-methyl-N-(tetrahydro-2H-pyran-4-yl)-1H-pyrrolo[3,2-c]pyridine-3-carboxamide] the same measures were 252 nM and 2.28 nM.
For `COC1CCN(c2nccc(Nc3cc4c(cn3)nc([C@@H](C)O)n4[C@@H](C)C(F)(F)F)n2)CC1F` (stereo partly drawn) [Example 543, (R)-1-[6-[2-(3-Fluoro-4-methoxypiperidin-1-yl)-pyrimidin-4-ylamino]-1-((S)-2,2,2-trifluoro-1-methyl-ethyl)-1H-imidazo[4,5-c]pyridin-2-yl]ethanol] the same measures were 24.7 nM and 5.81 nM.
The corresponding values for `CCC(C)n1cc(C(=O)NC2CCOCC2)c2cnc(Nc3ccnc(N4CC[C@@H](OC)[C@@H](F)C4)n3)cc21` (single isomer, unassigned) [Example 376] are 14.5 nM and 2.88 nM.
Regarding `CC(C)n1c(Cl)c(C(=O)NC2CCOCC2)c2cnc(Nc3ccnc(-c4cnn(S(=O)(=O)C5CC5)c4)n3)cc21` [Example 262, 2-Chloro-6-(2-(1-(cyclopropylsulfonyl)-1H-pyrazol-4-yl)pyrimidin-4-ylamino)-1-isopropyl-N-(tetrahydro-2H-pyran-4-yl)-1H-pyrrolo[3,2-c]pyridine-3-carboxamide], in test [1], the half-maximal effective concentration (EC50) – broadly, the concentration needed to bring the measured effect to its halfway point – stood at 57.7 nM. Besides, the Ki in test [2] worked out at 1.48 nM.
For `COC1CCN(c2nccc(Nc3cc4c(cn3)c(-c3nnc(C)o3)cn4C(C)C)n2)CC1` [Example 59, 1-Isopropyl-N-(2-(4-methoxypiperidin-1-yl)pyrimidin-4-yl)-3-(5-methyl-1,3,4-oxadiazol-2-yl)-1H-pyrrolo[3,2-c]pyridin-6-amine] the same measures were 583 nM and 28.7 nM.
For `CCNc1ncc(-c2nccc(Nc3cc4c(cn3)nc(C)n4C(C)C)n2)s1` [Example 295, [2-(2-Ethylaminothiazol-5-yl)pyrimidin-4-yl](1-isopropyl-2-methyl-1H-imidazo[4,5-c]pyridin-6-yl)amine] the same measures were 80.6 nM and 1.77 nM.
The corresponding values for `CCNC(=O)c1cn(C(C)C)c2cc(Nc3ccnc(N4CCC(OC)CC4)n3)ncc12` [Example 57, N-Ethyl-1-isopropyl-6-((2-(4-methoxypiperidin-1-yl)pyrimidin-4-yl)amino)-1H-pyrrolo[3,2-c]pyridine-3-carboxamide] are 236 nM and 20.2 nM.
In test [1], `COC1CCN(c2nccc(Nc3cc4c(cn3)ncn4C3CCCC3)n2)CC1` [Example 26, (1-Cyclopentyl-1H-imidazo[4,5-c]pyridin-6-yl)-[2-(4-methoxy-piperidin-1-yl)-pyrimidin-4-yl]amine] yielded a 50% effective concentration (EC50) of 1190 nM. Besides, in test [2], the Ki was 25.2 nM.
The corresponding values for `CC(C)n1cc(C(=O)NC2CCOCC2)c2cnc(Nc3ccnc(-c4cnn(S(=O)(=O)C5CC5)c4)n3)cc21` [Example 396] are 76.9 nM and 1.47 nM.
